Counter-ions that a name gives are not always drawn.

One data set is described as follows: in vitro. As to conditions: rat, gh3-tre-luc cells, AC50 (uM) modified / 1000.
Take `C[C@]12CC[C@@H]3c4ccc(O)cc4CC[C@H]3[C@@H]1CC[C@@H]2OP(=O)(O)O` [Estradiol phosphate]: the CC50 at 24 h is > 50 µM.

For `CCCCC(=O)O[C@H]1CC[C@H]2[C@@H]3CCc4cc(O)ccc4[C@H]3CC[C@]12C` [Estradiol valerate], it took 41.5 µM to reach half-maximal cytotoxicity (CC50 at 24 h).

For `C=CCc1ccc(OC)cc1` [Estragole], the CC50 at 24 h is > 90 µM.

Consider `C[C@]12CC[C@@H]3c4ccc(O)cc4CC[C@H]3[C@@H]1C[C@@H](O)[C@@H]2O` [Estriol], for which the CC50 at 24 h is > 90 µM.

For `C[C@]12CC[C@@H]3c4ccc(O)cc4CC[C@H]3[C@@H]1CCC2=O` [Estrone], the CC50 at 24 h is > 50 µM.

For the molecule `C[C@]12CC[C@@H]3c4ccc(OS(=O)(=O)O)cc4CC[C@H]3[C@@H]1CCC2=O` [Estropipate], the CC50 at 24 h is > 50 µM.

On to `CN1CCN(C(=O)O[C@H]2c3nccnc3C(=O)N2c2ccc(Cl)cn2)CC1` [Eszopiclone], for which the 50% cytotoxic concentration (CC50) at 24 h is > 50 µM.

As to `CCN(CC)CCOc1ccccc1C(=O)CCc1ccccc1` [Etafenone], half-maximal cytotoxicity (CC50 at 24 h) was put at 18.1 µM.

`O=C(Cn1ccnc1[N+](=O)[O-])NCCO` [Etandazole]: the CC50 at 24 h was > 50 µM.

As to `CCOC(=O)c1cnc2c(cnn2CC)c1NN=C(C)C` [Etazolate hydrochloride], the CC50 at 24 h is > 50 µM.

Take `CCOc1ccc2nc3cc(N)ccc3c(N)c2c1` [Ethacridine lactate hydrate]: the CC50 at 24 h was > 50 µM.

Consider `C=C(C)CN(CC)c1c([N+](=O)[O-])cc(C(F)(F)F)cc1[N+](=O)[O-]` [Ethalfluralin], for which the cytotoxic concentration (CC50) at 24 h is > 90 µM.

As for `CC[C@@H](CO)NCCN[C@@H](CC)CO` [Ethambutol dihydrochloride], the 50% cytotoxic concentration (CC50) at 24 h was > 20 µM.

With `O=C(CS)OCCOC(=O)CS` [Ethane-1,2-diyl bis(sulfanylacetate)], the 50% cytotoxic concentration (CC50) at 24 h was > 90 µM.

As to `CCO` [Ethanol], the half-maximal cytotoxic concentration (CC50) at 24 h was > 100 µM.

Regarding `CCOc1ccc(Cc2nccc3cc(OCC)c(OCC)cc23)cc1OCC` [Ethaverine hydrochloride], the CC50 at 24 h is > 20 µM.

Turning to `CCN(CC)S(=O)(=O)c1ccc(C(=O)O)cc1` [Ethebenecid], the CC50 at 24 h was > 50 µM.

For the molecule `C=C[Si](OCC)(OCC)OCC` [Ethenyl(triethoxy)silane], the half-maximal cytotoxic concentration (CC50) at 24 h was > 90 µM.

Regarding `C=C[Si](OC(=C)C)(OC(=C)C)OC(=C)C` [Ethenyl[tris(prop-1-en-2-yloxy)]silane], the half-maximal cytotoxic concentration (CC50) at 24 h is > 90 µM.

Take `C=C[Si](OC(C)=O)(OC(C)=O)OC(C)=O` [Ethenylsilanetriyl triacetate]: the 50% cytotoxic concentration (CC50) at 24 h is > 90 µM.

Turning to `O=P(O)(O)CCCl` [Ethephon], the CC50 at 24 h is > 90 µM.

Regarding `CCC1Nc2cc(Cl)c(S(N)(=O)=O)cc2S(=O)(=O)N1` (stereo not shown) [Ethiazide], the CC50 at 24 h is > 50 µM.

Turning to `CCSC(=O)N(CC)CC` [Ethiolate], the CC50 at 24 h is > 90 µM.

With `CCc1cc(C(N)=S)ccn1` [Ethionamide], the half-maximal cytotoxic concentration (CC50) at 24 h was > 50 µM.

As to `CCCCc1c(C)nc(NCC)[nH]c1=O` [Ethirimol], the 50% cytotoxic concentration (CC50) at 24 h is > 90 µM.

Take `C#C[C@]1(O)CC[C@H]2[C@@H]3CCC4=CC(=O)CC[C@]4(C)[C@H]3CC[C@@]21C` [Ethisterone]: the CC50 at 24 h is > 90 µM.

`CCOC1Oc2ccc(OS(C)(=O)=O)cc2C1(C)C` (stereo not shown) [Ethofumesate]: the CC50 at 24 h was > 90 µM.

For `CCCSP(=O)(OCC)SCCC` [Ethoprop], the cytotoxic concentration (CC50) at 24 h was > 90 µM.

In turn, `CCN(CC)C(C)CN1c2ccccc2Sc2ccccc21` (stereo not shown) [Ethopropazine hydrochloride] gave a cytotoxic concentration (CC50) at 24 h of 10.7 µM.

As to `CCC1(C)CC(=O)NC1=O` (stereo not shown) [Ethosuximide], the CC50 at 24 h was > 50 µM.

On to `CCN1C(=O)NC(c2ccccc2)C1=O` (stereo not shown) [Ethotoin], for which the CC50 at 24 h is > 20 µM.

`CCOc1ccc(/N=N/c2ccc(N)cc2N)cc1` [Ethoxazene]: the 50% cytotoxic concentration (CC50) at 24 h is > 50 µM.

Consider `CCOCC(=O)O` [Ethoxyacetic acid], for which the half-maximal cytotoxic concentration (CC50) at 24 h was > 90 µM.

With `CCOc1ccc2nc(S(N)(=O)=O)sc2c1` [Ethoxzolamide], the CC50 at 24 h was > 50 µM.

On to `CCOC(=O)Cc1cccc2ccccc12` [Ethyl 1-naphthaleneacetate], for which the cytotoxic concentration (CC50) at 24 h is > 90 µM.

Regarding `CCOC(=O)CC1(C)OCC(C)O1` (stereo not shown) [Ethyl 2,4-dimethyl-1,3-dioxolane-2-acetate], the 50% cytotoxic concentration (CC50) at 24 h was > 90 µM.

In the case of `CCOC(=O)CC(=O)c1cc(F)c(Cl)nc1Cl` [Ethyl 2,6-dichloro-5-fluoro-?-oxo-3-pyridinepropionate], the half-maximal cytotoxic concentration (CC50) at 24 h is > 90 µM.

`CCOC(=O)C(C#N)=C(c1ccccc1)c1ccccc1` [Ethyl 2-cyano-3,3-diphenylacrylate]: the CC50 at 24 h was > 90 µM.

With `CCOC(=O)c1ccccc1OC` [Ethyl 2-methoxybenzoate], the CC50 at 24 h is > 90 µM.

Consider `CCOC(=O)c1ccccc1C` [Ethyl 2-methylbenzoate], for which the CC50 at 24 h is > 90 µM.

In the case of `CCCC(C)C(=O)OCC` (stereo not shown) [Ethyl 2-methylpentanoate], the CC50 at 24 h is > 90 µM.

Turning to `CCCCN(CCC(=O)OCC)C(C)=O` [Ethyl 3-(N-butylacetamido)propionate], the half-maximal cytotoxic concentration (CC50) at 24 h was > 90 µM.

Take `CCOC(=O)CC(C(C)=O)C(C)=O` [Ethyl 3-acetyl-4-oxopentanoate]: the CC50 at 24 h was > 90 µM.

As to `CCOC(=O)c1cccc(N)c1` [Ethyl 3-aminobenzoate methanesulfonic acid salt], the CC50 at 24 h is > 50 µM.

For `CCOC(=N)CC(=O)OCC` [Ethyl 3-ethoxy-3-iminopropionate hydrochloride], the CC50 at 24 h was > 90 µM.

On to `CCOCCC(=O)OCC` [Ethyl 3-ethoxypropionate], for which the CC50 at 24 h was > 100 µM.

Regarding `CCOC(=O)C1OC1c1ccccc1` (stereo not shown) [Ethyl 3-phenylglycidate], the 50% cytotoxic concentration (CC50) at 24 h is > 90 µM.

As for `CCOC(=O)c1ccc(I)cc1` [Ethyl 4-iodobenzoate], the cytotoxic concentration (CC50) at 24 h was > 90 µM.

On to `CCOC(=O)c1ccc(C)cc1` [Ethyl 4-methylbenzoate], for which the half-maximal cytotoxic concentration (CC50) at 24 h was > 90 µM.

As for `CCOC(=O)C1=NN(c2ccccc2)C(=O)C1` [Ethyl 5-oxo-1-phenyl-4,5-dihydro-1H-pyrazole-3-carboxylate], the CC50 at 24 h was > 90 µM.

Regarding `CCCCC/C=C\C=C\C(=O)OCC` [Ethyl (2E,4Z)-deca-2,4-dienoate], it took 29.3 µM to reach half-maximal cytotoxicity (CC50 at 24 h).

On to `CCOC(=O)[C@@H](N)CS` [Ethyl L-cysteinate hydrochloride], for which the cytotoxic concentration (CC50) at 24 h was > 50 µM.

As to `CCOC(C)(C)C` [Ethyl T-butyl ether], the half-maximal cytotoxic concentration (CC50) at 24 h was > 90 µM.

Take `CCOC(=O)NCCC[Si](OCC)(OCC)OCC` [Ethyl [3-(triethoxysilyl)propyl]carbamate]: the CC50 at 24 h is > 90 µM.

Take `CCOC(C)=O` [Ethyl acetate]: the CC50 at 24 h was > 90 µM.

Take `CCOC(=O)CC(C)=O` [Ethyl acetoacetate]: the cytotoxic concentration (CC50) at 24 h was > 90 µM.

Regarding `C=CC(=O)OCC` [Ethyl acrylate], the half-maximal cytotoxic concentration (CC50) at 24 h was > 90 µM.

On to `CCOC(=O)c1ccccc1` [Ethyl benzoate], for which the CC50 at 24 h is > 90 µM.

Take `CCOC(=O)CC(=O)c1ccccc1` [Ethyl benzoylacetate]: the CC50 at 24 h was > 90 µM.

As to `CCOC(=O)C(Br)c1ccccc1` (stereo not shown) [Ethyl bromophenylacetate], the CC50 at 24 h was > 90 µM.

On to `CCCC(=O)OCC` [Ethyl butyrate], for which the half-maximal cytotoxic concentration (CC50) at 24 h is > 90 µM.

As to `CCOC(=O)/C=C/c1ccccc1` [Ethyl cinnamate], the CC50 at 24 h is > 90 µM.

On to `CCOC(=O)CC#N` [Ethyl cyanoacetate], for which the CC50 at 24 h is > 90 µM.

As for `C=C(C#N)C(=O)OCC` [Ethyl cyanoacrylate], the 50% cytotoxic concentration (CC50) at 24 h is > 90 µM.

Staying with this data set, now noted: rat, gh3-tre-luc cells, AC50 (uM) modified / 1000, Tox21_110001=Tox21_110991; viability, 1 nM T3 present, 24 h.
As for `CCC1(c2ccccc2)C(=O)N(COC)C(=O)N(COC)C1=O` [Eterobarb], the CC50 at 24 h was > 50 µM.

The data set is the same for the next values; noted with them: rat, gh3-tre-luc cells, AC50 (uM) modified / 1000, Tox21_110001=Tox21_112207; viability, 1 nM T3 present, 24 h.
As for `C[C@]12CC[C@@H]3c4ccc(OC(=O)N(CCCl)CCCl)cc4CC[C@H]3[C@@H]1CC[C@@H]2O` [Estramustine], the CC50 at 24 h was > 50 µM.

The same data set, now with this note: rat, gh3-tre-luc cells, AC50 (uM) modified / 1000, Tox21_110001=Tox21_113227; viability, 1 nM T3 present, 24 h.
On to `CCOC(=O)C1(c2ccccc2)CCCN(C)CC1` (stereo not shown) [Ethoheptazine hydrochloride], for which the 50% cytotoxic concentration (CC50) at 24 h is > 50 µM.

The data set is the same for the next values; noted with them: rat, gh3-tre-luc cells, AC50 (uM) modified / 1000, Tox21_110001=Tox21_200152; viability, 1 nM T3 present, 24 h.
As for `CCOC(=O)CBr` [Ethyl bromoacetate], the half-maximal cytotoxic concentration (CC50) at 24 h is > 90 µM.

The same data set, now with this note: rat, gh3-tre-luc cells, AC50 (uM) modified / 1000, Tox21_110001=Tox21_201053; viability, 1 nM T3 present, 24 h.
As for `CCOC(=O)CCl` [Ethyl chloroacetate], the CC50 at 24 h was > 90 µM.

Staying with this data set, now noted: rat, gh3-tre-luc cells, AC50 (uM) modified / 1000, Tox21_110001=Tox21_202019; viability, 1 nM T3 present, 24 h.
`CCOC(=O)c1ccccc1N` [Ethyl anthranilate]: the CC50 at 24 h is > 90 µM.

The same data set, now with this note: rat, gh3-tre-luc cells, AC50 (uM) modified / 1000, Tox21_110001=Tox21_202936; viability, 1 nM T3 present, 24 h.
Consider `CCOC(=O)C(Cl)C(C)=O` (stereo not shown) [Ethyl 2-chloroacetoacetate], for which the CC50 at 24 h is > 90 µM.

The same data set, now with this note: rat, gh3-tre-luc cells, AC50 (uM) modified / 1000, Tox21_110001=Tox21_300175; viability, 1 nM T3 present, 24 h.
For the molecule `CCOP(=S)(OCC)SCSP(=S)(OCC)OCC` [Ethion], the CC50 at 24 h was > 90 µM.

Still in this data set, the particulars now being: rat, gh3-tre-luc cells, AC50 (uM) modified / 1000, Tox21_110001=Tox21_301356; viability, 1 nM T3 present, 24 h.
Take `CCSCc1ccccc1OC(=O)NC` [Ethiofencarb]: the half-maximal cytotoxic concentration (CC50) at 24 h is > 90 µM.

Staying with this data set, now noted: rat, gh3-tre-luc cells, AC50 (uM) modified / 1000, Tox21_110001=Tox21_301568; viability, 1 nM T3 present, 24 h.
As for `CCC1COC(Cn2cncn2)(c2ccc(Cl)cc2Cl)O1` (stereo not shown) [Etaconazole], the CC50 at 24 h was > 90 µM.

The data set is the same for the next values; noted with them: rat, gh3-tre-luc cells, AC50 (uM) modified / 1000, Tox21_110001=Tox21_302063; viability, 1 nM T3 present, 24 h.
In turn, `CCOC(=O)CC(=O)CCl` [Ethyl 4-chloro-3-oxobutanoate] showed a CC50 at 24 h of 76.9 µM.

Staying with this data set, now noted: rat, gh3-tre-luc cells, AC50 (uM) modified / 1000, Tox21_110001=Tox21_303381; viability, 1 nM T3 present, 24 h.
Consider `CCC(=O)c1ccc(Cl)cc1` [Ethyl 4-chlorophenyl ketone], for which the CC50 at 24 h is > 90 µM.

Values taken from article PMC6792352, “Limited Chemical Structural Diversity Found to Modulate Thyroid Hormone Receptor in the Tox21 Chemical Library” (Environmental Health Perspectives, 2019).
